Test results as given in patent publication US20190292155A1, “THERAPEUTIC INHIBITORY COMPOUNDS” (LifeSci Pharmaceuticals, Inc., priority 2016, published 2019).
Read-outs that look alike come from different tables or passages of the source.

Biological target: T1, human complement factor D (Homo sapiens, UniProt P00746)
T1 construct: purchased R&D Systems 1824-SE
Assay: In vitro enzyme inhibition of human complement factor D (Z-Lys-SBzl/DTNB, A405)
Format: biochemical
Experimental: The ability of the compounds disclosed herein to inhibit human complement factor D inhibitory activity was quantified according to the 12-step protocol provided below. • 1. Prepare assay buffer: 50 mM Tris/HCl, pH 7.5, 1 M NaCl. • 2. […] Then dilute the serial concentrations of Nafamostat Mesilate 20-fold in assay buffer. • 3. […] 0.5% DMSO was in each well finally. • 4. […] Add 10 μl diluted test compounds duplicated into the 96-well plate. […] 0.5% DMSO was in each well finally. • 6. Dilute 20 mM substrate Z-Lys-SBzl (Bachem, Cat# M-1300) to 200 μM in assay buffer with 200 μM DTNB (Sigma, Catalog# D8130). • 7. […] Add 40 μl diluted Complement Factor D in the 96-well plate. • 8. Positive control well contains Complement Factor D without test compound. Negative control well contains neither Complement Factor D nor test compound. Using assay buffer, bring the total volume of all controls to 50 al. • 9. Pre-incubate the plate for 5 min at room temperature. • 10. Add 50 μl of diluted substrate/DTNB mixture into each well. […] For kinetic reading: Immediately start measuring absorbance (A405 nm) continuously and record data every 30 sec for 60 min. • 12. Data analysis • Inhibition activity of compound was evaluated by IC50. IC50 was calculated according the dose-response curve of compound fitted using GraphPadPrism with “log(inhibitor)-response (variable slope)” equation. • % inhibition was calculated by using following equation:
[formula] • Mean(NC): The average value of the negative control wells' A405 nm values. • Mean(PC): The average value of the positive control wells' A405 nm values.

[1] = biochemical assay, substrate Z-Lys-SBzl, read-out: CFD IC50

T1 sequence (P00746 26-253): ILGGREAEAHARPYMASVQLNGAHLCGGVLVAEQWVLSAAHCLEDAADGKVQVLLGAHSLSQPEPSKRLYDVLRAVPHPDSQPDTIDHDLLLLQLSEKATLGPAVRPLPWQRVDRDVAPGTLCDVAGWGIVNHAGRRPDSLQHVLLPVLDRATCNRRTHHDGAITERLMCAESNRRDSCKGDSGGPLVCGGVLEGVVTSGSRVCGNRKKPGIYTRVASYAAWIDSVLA

| SMILES | IC50 [1] [µM] | IC50 [µM] |
| --- | --- | --- |
| NC(=O)c1nn(CC(=O)N(CC(=O)NCc2cccc(Br)c2F)C2CC2)c2ccccc12 [Example 120, 1-(2-((2-((3-bromo-2-fluorobenzyl)amino)-2-oxoethyl)(cyclopropyl)amino)-2-oxoethyl)-1H-indazole-3-carboxamide] | < 0.1 |  |
| NC(=O)c1nn(CC(=O)N(CC(=O)NCc2cccc(Cl)c2F)C2CC2)c2ccc(F)cc12 [Example 78, 1-(2-((2-((3-chloro-2-fluorobenzyl)amino)-2-oxoethyl)(cyclopropyl)amino)-2-oxoethyl)-5-fluoro-1H-indazole-3-carboxamide] |  | 0.1 to 1 |
| CC(CCO)N(CC(=O)NCc1cccc(Cl)c1F)C(=O)Cn1nc(C(N)=O)c2ccccc21 (centres unmarked) [Example 57, 1-(2-((2-((3-chloro-2-fluorobenzyl)amino)-2-oxoethyl)(4-hydroxybutan-2-yl)amino)-2-oxoethyl)-1H-indazole-3-carboxamide] |  | 0.1 to 1 |
| CC(CO)N(CC(=O)NCc1cccc(Cl)c1F)C(=O)Cn1nc(C(N)=O)c2ccccc21 (centres unmarked) [Example 58, 1-(2-((2-((3-chloro-2-fluorobenzyl)amino)-2-oxoethyl)(1-hydroxypropan-2-yl)amino)-2-oxoethyl)-1H-indazole-3-carboxamide] |  | 0.1 to 1 |
| CC(C)C(C)N(CC(=O)NCc1cccc(Cl)c1F)C(=O)Cn1nc(C(N)=O)c2ccccc21 (centres unmarked) [Example 54, 1-(2-((2-((3-chloro-2-fluorobenzyl)amino)-2-oxoethyl)(3-methylbutan-2-yl)amino)-2-oxoethyl)-1H-indazole-3-carboxamide] |  | 0.1 to 1 |
| N#Cc1ccc(CNC(=O)CN(C(=O)Cn2nc(C(N)=O)c3ccccc32)C2CC2)c(F)c1Cl [Example 96, 1-(2-((2-((3-chloro-4-cyano-2-fluorobenzyl)amino)-2-oxoethyl)(cyclopropyl)amino)-2-oxoethyl)-1H-indazole-3-carboxamide] | 1 to 10 |  |
| NC(=O)c1nn(CC(=O)N(CC(=O)Nc2cccc(Cl)n2)Cc2ccncc2)c2ccccc12 [Example 25, 1-(2-((2-((6-chloropyridin-2-yl)amino)-2-oxoethyl)(pyridin-4-ylmethyl)amino)-2-oxoethyl)-1H-indazole-3-carboxamide] | > 10 |  |
| NC(=O)c1nn(CC(=O)N(CC(=O)NCc2ccc(F)c(Cl)c2)C2CC2)c2ccccc12 [Example 108, 1-(2-((2-((3-chloro-4-fluorobenzyl)amino)-2-oxoethyl)(cyclopropyl)amino)-2-oxoethyl)-1H-indazole-3-carboxamide] | 1 to 10 |  |
| NC(=O)c1nn(CC(=O)N(CC(=O)NCc2c(F)ccc(Cl)c2F)C2CC2)c2ccccc12 [Example 82, 1-(2-((2-((3-chloro-2,6-difluorobenzyl)amino)-2-oxoethyl)(cyclopropyl)amino)-2-oxoethyl)-1H-indazole-3-carboxamide] |  | 0.1 to 1 |
| NC(=O)c1nn(CC(=O)N(CC(=O)NCc2ccc(F)c(Cl)c2F)C2CC2)c2ccccc12 [Example 83, 1-(2-((2-((3-chloro-2,4-difluorobenzyl)amino)-2-oxoethyl)(cyclopropyl)amino)-2-oxoethyl)-1H-indazole-3-carboxamide] | 0.1 to 1 |  |
| NC(=O)c1nn(CC(=O)N(CC(=O)NCc2cccc(Cl)n2)C2CC2)c2ccccc12 [Example 107, 1-(2-((2-(((6-chloropyridin-2-yl)methyl)amino)-2-oxoethyl)(cyclopropyl)amino)-2-oxoethyl)-1H-indazole-3-carboxamide] | 1 to 10 |  |
| NC(=O)c1nn(CC(=O)N(CC(=O)NCc2cc(Cl)cc3[nH]ncc23)C2CC2)c2ccccc12 [Example 91, 1-(2-((2-(((6-chloro-1H-indazol-4-yl)methyl)amino)-2-oxoethyl)(cyclopropyl)amino)-2-oxoethyl)-1H-indazole-3-carboxamide] | 0.1 to 1 |  |
| NC(=O)n1cc(NC(=O)N(CC(=O)NCc2cccc(Cl)c2F)C2CC2)c2ccccc21 [Example 51, 3-(3-(2-((3-chloro-2-fluorobenzyl)amino)-2-oxoethyl)-3-cyclopropylureido)-1H-indole-1-carboxamide] | 0.1 to 1 |  |
| NC(=O)c1nn(CC(=O)N(CC(=O)NCc2cccc(C3CC3)c2F)C2CC2)c2ccccc12 [Example 127, 1-(2-(cyclopropyl(2-((3-cyclopropyl-2-fluorobenzyl)amino)-2-oxoethyl)amino)-2-oxoethyl)-1H-indazole-3-carboxamide] | 1 to 10 |  |
| N#Cc1ccc(Cl)c(F)c1CNC(=O)CN(C(=O)Cn1nc(C(N)=O)c2ccccc21)C1CC1 [Example 87, 1-(2-((2-((3-chloro-6-cyano-2-fluorobenzyl)amino)-2-oxoethyl)(cyclopropyl)amino)-2-oxoethyl)-1H-indazole-3-carboxamide] | 0.1 to 1 |  |
| NC(=O)n1nc(CC(=O)N(CC(=O)Nc2cccc(Cl)n2)C2CCCC2)c2ccccc21 [Example 19, 3-(2-((2-((6-chloropyridin-2-yl)amino)-2-oxoethyl)(cyclopentyl)amino)-2-oxoethyl)-1H-indazole-1-carboxamide] | 0.1 to 1 |  |
| N#Cc1cc(Cl)cc(CNC(=O)CN(C(=O)Cn2nc(C(N)=O)c3ccccc32)C2CC2)c1 [Example 133, 1-(2-((2-((3-chloro-5-cyanobenzyl)amino)-2-oxoethyl)(cyclopropyl)amino)-2-oxoethyl)-1H-indazole-3-carboxamide] | 1 to 10 |  |
| NC(=O)c1nn(CC(=O)N(CC(=O)NCc2cccc(Cl)c2C(F)(F)F)C2CC2)c2ccccc12 [Example 135, 1-(2-((2-((3-chloro-2-(trifluoromethyl)benzyl)amino)-2-oxoethyl)(cyclopropyl)amino)-2-oxoethyl)-1H-indazole-3-carboxamide] | 1 to 10 |  |
| NC(=O)n1nc(CC(=O)N(CC(=O)Nc2cccc(Cl)n2)C2CCOCC2)c2ccccc21 [Example 21, 3-(2-((2-((6-chloropyridin-2-yl)amino)-2-oxoethyl)(tetrahydro-2H-pyran-4-yl)amino)-2-oxoethyl)-1H-indazole-1-carboxamide] | 1 to 10 |  |
| CC(C(N)=O)N(CC(=O)NCc1cccc(Cl)c1F)C(=O)Cn1nc(C(N)=O)c2ccccc21 (centres unmarked) [Example 62, 1-(2-((1-amino-1-oxopropan-2-yl)(2-((3-chloro-2-fluorobenzyl)amino)-2-oxoethyl)amino)-2-oxoethyl)-1H-indazole-3-carboxamide] | 1 to 10 |  |
| NC(=O)c1nn(CC(=O)N(CC(=O)NCc2cc(Cl)cc3cn[nH]c23)C2CC2)c2ccccc12 [Example 109, 1-(2-((2-(((5-chloro-1H-indazol-7-yl)methyl)amino)-2-oxoethyl)(cyclopropyl)amino)-2-oxoethyl)-1H-indazole-3-carboxamide] | 1 to 10 |  |
| NC(=O)c1nn(CC(=O)N(CC(=O)NCc2cccc(Cl)c2F)C(CO)C2CC2)c2ccccc12 (centres unmarked) [Example 69, 1-(2-((2-((3-chloro-2-fluorobenzyl)amino)-2-oxoethyl)(1-cyclopropyl-2-hydroxyethyl)amino)-2-oxoethyl)-1H-indazole-3-carboxamide] | 1 to 10 |  |
| NC(=O)n1cc(NC(=O)N(CC(=O)NCc2cccc(Cl)c2F)C2CCNC2)c2ccccc21 (centres unmarked) [Example 52, 3-(3-(2-((3-chloro-2-fluorobenzyl)amino)-2-oxoethyl)-3-(pyrrolidin-3-yl)ureido)-1H-indole-1-carboxamide] | 0.1 to 1 |  |
| NC(=O)c1nn(CC(=O)N(CC(=O)NCc2cccc(Cl)c2F)Cc2ccncc2)c2ccccc12 [Example 32, 1-(2-((2-((3-chloro-2-fluorobenzyl)amino)-2-oxoethyl)(pyridin-4-ylmethyl)amino)-2-oxoethyl)-1H-indazole-3-carboxamide] | 1 to 10 |  |
| NC(=O)c1nn(CC(=O)N(CC(=O)NCc2cccc(CO)c2F)C2CC2)c2ccccc12 [Example 126, 1-(2-(cyclopropyl(2-((2-fluoro-3-(hydroxymethyl)benzyl)amino)-2-oxoethyl)amino)-2-oxoethyl)-1H-indazole-3-carboxamide] | > 10 |  |
| CC(c1ccccc1)N(CC(=O)NCc1cccc(Cl)c1F)C(=O)Cn1nc(C(N)=O)c2ccccc21 (centres unmarked) [Example 65, 1-(2-((2-((3-chloro-2-fluorobenzyl)amino)-2-oxoethyl)(1-phenylethyl)amino)-2-oxoethyl)-1H-indazole-3-carboxamide] | 0.1 to 1 |  |
| NC(=O)c1ccc(CNC(=O)CN(C(=O)Cn2nc(C(N)=O)c3ccccc32)C2CC2)c(F)c1 [Example 117, 1-(2-((2-((4-carbamoyl-2-fluorobenzyl)amino)-2-oxoethyl)(cyclopropyl)amino)-2-oxoethyl)-1H-indazole-3-carboxamide] | 1 to 10 |  |
| NC(=O)c1nn(CC(=O)N(CC(=O)NCc2cc(Cl)cc(C(F)(F)F)c2)C2CC2)c2ccccc12 [Example 124, 1-(2-((2-((3-chloro-5-(trifluoromethyl)benzyl)amino)-2-oxoethyl)(cyclopropyl)amino)-2-oxoethyl)-1H-indazole-3-carboxamide] | 1 to 10 |  |
| CC(=O)c1nc(CC(=O)N(CC(=O)NCc2cccc(Cl)c2F)C2CC2)n2ccccc12 [Example 48, 2-(1-acetylimidazo[1,5-a]pyridin-3-yl)-N-(2-((3-chloro-2-fluorobenzyl)amino)-2-oxoethyl)-N-cyclopropylacetamide] | 0.1 to 1 |  |
